From patent publication US9096532B2, “Pyrazole inhibitors of COX-2 and sEH” (The Regents of the University of California, priority 2010, dated 2015) come the findings set out here.

Structures are written as SMILES. Entries after “also recorded” stand apart in the source; their conditions may differ. Bounds are passed on as bounds.

The EC50 is the concentration at which the effect is half-maximal. A lower EC50 goes with a more potent agent. As usually defined, the IC50 is the concentration at which inhibition is half-maximal. As a reminder, the AUC is concentration integrated over time. The term Cmax denotes the peak of the concentration-time curve. The Tmax is the time from dosing to the highest level. In general, half-life refers to the time in which the quantity being followed falls by half. A lower half-life goes with rapid decline. For orientation: inhibition means the share of the control response that was lost under treatment.

For data set [1], the system named is HepG2 cells. Nature of the data set: HepG2 cell viability analysis (MTT). The format is cell-based. The following applies: Homo sapiens, HepG2; MTT after 24 hours of incubation. The procedure:
Cells were plated at 10,000 cell per well in 96-well plates and allowed to attach overnight under the growth conditions described above. […] These compounds were dissolved in 100% DMSO and diluted with EMEM to the desired concentration of 0.1 μM, 1.0 μM, 10 μM, 25 μM, and 50 μM, with a final DMSO concentration of 0.1% for all cell-based in vitro studies. All studies included DMSO as a solvent control. Cell viability was determined using the MTT Cell Viability Assay Kit from ATCC according to manufacturer's instructions. The 96-well plates were measure at 570 nm using SpectroMax 190 plate reader (Molecular Devices, Sunnyvale, Calif.). […] Each concentration was performed in triplicate per 96-well plate and EC50 data are presented as the mean±standard deviation from at least 3 separate experiments performed on separate days.

Data set [2] deals with T1, 5-LOX (Homo sapiens, UniProt P09917).
T1 sequence (P09917 1-674): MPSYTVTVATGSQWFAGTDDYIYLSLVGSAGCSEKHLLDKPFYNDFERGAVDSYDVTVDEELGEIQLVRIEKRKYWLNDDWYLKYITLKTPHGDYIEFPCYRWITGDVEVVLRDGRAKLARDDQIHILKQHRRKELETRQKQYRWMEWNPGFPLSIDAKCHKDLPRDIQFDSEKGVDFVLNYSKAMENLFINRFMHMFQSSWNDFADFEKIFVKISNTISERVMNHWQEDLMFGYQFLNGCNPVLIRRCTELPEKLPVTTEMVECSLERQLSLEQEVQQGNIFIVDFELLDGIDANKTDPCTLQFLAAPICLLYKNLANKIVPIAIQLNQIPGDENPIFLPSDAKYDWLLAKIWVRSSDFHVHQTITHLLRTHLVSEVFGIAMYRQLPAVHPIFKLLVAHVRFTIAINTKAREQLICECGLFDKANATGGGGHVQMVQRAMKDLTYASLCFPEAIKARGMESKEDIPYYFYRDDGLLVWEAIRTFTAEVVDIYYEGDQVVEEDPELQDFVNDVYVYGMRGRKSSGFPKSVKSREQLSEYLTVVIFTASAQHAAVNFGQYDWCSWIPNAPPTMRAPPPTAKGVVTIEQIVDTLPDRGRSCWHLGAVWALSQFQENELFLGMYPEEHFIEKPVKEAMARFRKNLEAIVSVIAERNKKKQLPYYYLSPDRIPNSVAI
Nature of the data set: Potency against 5-LOX. The format is biochemical. The following applies: compared with celecoxib.

Data set [3] addresses T2, human recombinant COX-2 (Homo sapiens, UniProt P35354).
T2 construct: purchased Cayman Chemical 700100
T2 sequence (P35354 18-604): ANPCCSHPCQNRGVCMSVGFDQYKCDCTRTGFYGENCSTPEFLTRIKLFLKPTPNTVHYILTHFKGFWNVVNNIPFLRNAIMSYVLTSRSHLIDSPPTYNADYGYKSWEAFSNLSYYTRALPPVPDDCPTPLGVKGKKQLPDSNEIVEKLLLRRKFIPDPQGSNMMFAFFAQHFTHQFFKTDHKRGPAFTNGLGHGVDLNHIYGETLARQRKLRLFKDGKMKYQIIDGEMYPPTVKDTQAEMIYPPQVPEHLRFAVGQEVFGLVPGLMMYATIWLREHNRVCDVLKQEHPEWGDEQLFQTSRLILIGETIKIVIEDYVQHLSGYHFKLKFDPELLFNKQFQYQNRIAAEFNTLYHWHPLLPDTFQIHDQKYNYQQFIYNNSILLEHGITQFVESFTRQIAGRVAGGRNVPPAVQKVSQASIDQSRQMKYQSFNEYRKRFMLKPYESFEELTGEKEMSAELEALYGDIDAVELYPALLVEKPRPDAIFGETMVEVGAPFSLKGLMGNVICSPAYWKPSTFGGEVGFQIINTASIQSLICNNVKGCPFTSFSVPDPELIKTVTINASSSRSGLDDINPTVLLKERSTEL
Nature of the data set: Cyclooxygenase inhibition assay (COX Fluorescent Inhibitor Screening Assay Kit), COX-2. The format is biochemical. The procedure: (§1) Stock solutions of test compounds are dissolved in a minimum volume of DMSO. 10 μl of various concentrations of the test compound solutions, e.g., [I]final between 0.01 and 100 μM, are added to a series of supplied reaction buffer solutions (150 μl, 100 mM Tris-HCl, pH 8.0) with either COX-1 or COX-2 (10 μl) enzyme in the presence of Heme (10 μl) and a fluorometric substrate (10 μl). The reactions are initiated by quickly adding 10 μl of arachidonic acid solution and then incubating the system for two minutes at room temperature. […] The intensity of this fluorescence is proportional to the amount of resorufin, which is proportional to the amount of PGG2 present in the well during the incubation. Percent inhibition is calculated by comparison from the 100% initial activity sample value (no inhibitor).
as §1, with “compounds were” for “compounds are”, “μM, were” for “μM, are”, “reactions were” for “reactions are”, “then incubated” for “then incubating the system”, “inhibition was” for “inhibition is”

Data set [4] in a line: Pharmacokinetics in mice by oral cassette dosing. As to conditions: oral cassette dosing at 5 mg/kg, blood. The format is in vivo.
Protocol: All the animal experiments were performed according to protocols approved by the Animal Use and Care Committee of University of California, Davis. […] Each cassette was orally administered to 4 mice at a dose of 5 mg/kg in 120-150 μl of vehicle depending on animal weight. […] The instrument was equipped with a linear ion trap and a Turbo V ion source and was operated in negative ion MRM mode. […] This was maintained for 3 min, then the gradient was returned to 30% solvent B in 2 min. The flow rate was 0.4 mL/min. The injection volume was 10 μL and the samples were kept at 4° C. in the auto sampler.
Data set [5] is described as follows: Pharmacokinetics in rats by oral administration.
Data set [6] has as its target T3, ovine COX-1 (Ovis aries, UniProt P05979).
T3 construct: purchased Cayman Chemical 700100
T3 sequence (P05979 25-600): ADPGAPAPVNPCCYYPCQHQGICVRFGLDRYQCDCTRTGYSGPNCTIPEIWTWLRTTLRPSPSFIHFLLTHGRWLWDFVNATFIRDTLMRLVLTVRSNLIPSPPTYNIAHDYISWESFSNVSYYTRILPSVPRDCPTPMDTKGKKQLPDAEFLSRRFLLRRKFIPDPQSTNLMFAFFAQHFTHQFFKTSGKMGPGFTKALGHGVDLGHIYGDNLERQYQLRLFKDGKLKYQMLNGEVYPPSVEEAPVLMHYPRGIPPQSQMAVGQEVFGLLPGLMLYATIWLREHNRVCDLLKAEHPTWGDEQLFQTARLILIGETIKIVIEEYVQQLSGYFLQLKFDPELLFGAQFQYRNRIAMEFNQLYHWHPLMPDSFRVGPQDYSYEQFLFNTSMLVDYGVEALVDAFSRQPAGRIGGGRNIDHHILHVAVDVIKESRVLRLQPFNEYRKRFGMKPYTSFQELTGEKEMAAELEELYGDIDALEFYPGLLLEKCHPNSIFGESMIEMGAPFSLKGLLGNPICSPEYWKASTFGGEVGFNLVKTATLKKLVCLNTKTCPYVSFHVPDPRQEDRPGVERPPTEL
In words: Cyclooxygenase inhibition assay (COX Fluorescent Inhibitor Screening Assay Kit), COX-1. The format is biochemical. The following applies: for inhibition at 100 µM: read-out: COX-1 (% inhibition). As for the experimental part: as §1
as §1, with “compounds were” for “compounds are”, “μM, were” for “μM, are”, “reactions were” for “reactions are”, “then incubated” for “then incubating the system”, “inhibition was” for “inhibition is”

Data set [7] concerns LPS induced allodynia. Nature of the data set: Von Frey mechanical nociceptive assay, LPS induced model of inflammatory pain. The following applies: male SD rats, 10 mg/kg s.c. 60 minutes before intraplantar LPS, tested until 6 hours post LPS. The format is in vivo. The procedure: In vivo anti-allodynic effects of the COX-2/sEH dual inhibitors provided herein was assayed. An LPS induced model of inflammatory pain was used to compare the pain reducing activity of the COX-2/sEH dual inhibitors to combination and individual therapies.
Rats weighing approximately 250-300 grams are brought to the testing apparatus and allowed to acclimate for 30 minutes. After 30 minutes the rats are tested with a von Frey aesthesiometer for their non-treated baseline withdrawal latency to mechanical stimulation. The von Frey apparatus is a raised metal mesh platform that has clear acrylic chambers to enclose rats but allow them to move freely. A rigid tip von Frey probe is used to probe the plantar surface of the rat hind paw though the mesh floor to elicit a withdrawal response. The measures recorded are grams of force applied to the hind paw required to elicit a withdrawal. The pretreatment baseline score is considered the pain-free baseline (BL) and is assigned 100% for further response calculations. […] The measures are then calculated as a percent of the pretreatment baseline score.

Data set [8] addresses T4, human sEH (Homo sapiens, UniProt P34913).
T4 sequence (P34913 1-555): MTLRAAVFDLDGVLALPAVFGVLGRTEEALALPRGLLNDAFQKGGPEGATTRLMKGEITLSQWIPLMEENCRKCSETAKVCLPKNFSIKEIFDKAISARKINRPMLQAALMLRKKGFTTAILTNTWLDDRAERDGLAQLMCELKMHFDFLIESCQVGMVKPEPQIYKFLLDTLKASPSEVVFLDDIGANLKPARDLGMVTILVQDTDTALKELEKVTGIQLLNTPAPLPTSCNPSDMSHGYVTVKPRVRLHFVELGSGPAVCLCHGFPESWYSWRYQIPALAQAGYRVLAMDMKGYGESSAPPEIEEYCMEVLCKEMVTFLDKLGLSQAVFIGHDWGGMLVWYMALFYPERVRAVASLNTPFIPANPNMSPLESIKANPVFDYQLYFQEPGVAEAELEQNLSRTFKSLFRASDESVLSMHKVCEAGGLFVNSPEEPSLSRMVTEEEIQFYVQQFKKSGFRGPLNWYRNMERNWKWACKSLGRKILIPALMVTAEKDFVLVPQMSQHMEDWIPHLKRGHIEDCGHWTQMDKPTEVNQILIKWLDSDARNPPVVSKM
In words: sEH IC50 assay, fluorescent-based with CMNPC substrate. The format is biochemical. As for the experimental part: sEH inhibition IC50 values for the compounds presented herein can be assayed by a recombinant affinity assay using purified sEHs, from human, mouse or rat, in a fluorescent-based assay.
For the recombinant affinity assay, purified sEHs (human, mouse and rat) were used in a fluorescent-based assay to determine IC50 values. […] These IC50 values were calculated from at least three separate runs, each in triplicate, to obtain the statistics herein, e.g., standard deviation.

Where [9] appears, read: human recombinant COX-2, triplicate average.
Where [10] appears, read: rats, oral administration at 1 mg/kg (n = 4), blood.

In turn, `Cc1ccc(-c2cc(C(F)(F)F)nn2-c2ccc(S(N)(=O)=O)cc2)cc1` [Celecoxib, celecoxib, reference compound] registered an EC50 in data set [1] of 20 ± 4 µM.

For `NS(=O)(=O)c1ccc(-n2nc(CCCNC(=O)Nc3ccc(OC(F)(F)F)cc3)cc2-c2ccccc2)cc1` [Compound 21j, 4-(5-Phenyl-3-{3-[3-(4-trifluoromethoxy-phenyl)-ureido]-propyl}-pyrazol-1-yl)-benzenesulfonamide], the “Potency against 5-LOX, in words” value in data set [2] is recorded as “comparable with celecoxib”. Besides, the IC50 in data set [3] (setting [9]) amounted to 0.92 µM. This molecule had an EC50 in data set [1] of 10 ± 2 µM. Moreover, in data set [4], the AUC came to 1.335 µM·h, the highest level (Cmax) was 290 nM, the Tmax was 0.8 h and the t1/2 amounted to 2.4 h. Moreover, in data set [5] (male, Sprague-Dawley, rat, whole blood, po, 1 mg/kg), the half-life is 11.6 ± 5.6 h. In data set [5] (setting [10]), the AUC worked out at 1.23 ± 0.521 µM·h, the Cmax came to 180 ± 71 nM and the Tmax worked out at 1.0 ± 0.7 h. In data set [6], the IC50 was above 100 µM and the inhibition at 100 µM turned out to be 13.8%.

With `O=C(NC1CCC(Oc2ccc(C(=O)O)cc2)CC1)NC12CC3CC(CC(C3)C1)C2` (centres unmarked) [t-AUCB, reference compound], in data set [7], the “Anti-allodynic effect, von Frey paw withdrawal, in words” value is recorded as “slight antihyperalgesic effect; also recorded: limited effect”. Also, in data set [6] (ovine COX-1, % inhibition at 100 μM concentration), the “COX-1 (% inhibition)” value is recorded as 25.2%.

As to `NS(=O)(=O)c1ccc(-n2nc(CCCNC(=O)Nc3cccc(C(F)(F)F)c3)cc2-c2ccccc2)cc1` [Compound 21b, 4-(5-Phenyl-3-{3-[3-(3-trifluoromethyl-phenyl)-ureido]-propyl}-pyrazol-1-yl)-benzenesulfonamide], the “Potency against 5-LOX, in words” value in data set [2] was “comparable with celecoxib”. For the same molecule, in data set [3] (setting [9]), the IC50 was determined as 0.71 µM. Further, in data set [3] (text of b131, unit inferred), the IC50 amounted to 0.71 µM. Besides, in data set [4], the AUC is 0.035 µM·h, the highest level (Cmax) was 19 nM, the Tmax turned out to be 0.5 h and the t1/2 came to 1.0 h. Besides, the “Improvement of sEH inhibition” value in data set [8] (compared to compound 11g) is recorded as 20 fold. Further, in data set [6], the IC50 was above 100 µM and the inhibition at 100 µM was found to be 27.2%.

As for `Cc1ccc(-c2cc(CCCNC(=O)Nc3cccc(C(F)(F)F)c3)nn2-c2ccc(S(N)(=O)=O)cc2)cc1` [Compound 21c, 4-(5-p-Tolyl-3-{3-[3-(3-trifluoromethyl-phenyl)-ureido]-propyl}-pyrazol-1-yl)-benzenesulfonamide], in data set [3] (compared to compound 21b), the “Diminished COX-2 inhibition” value is on record as 3 fold. In data set [8] (compared to compound 21b), the “Diminished sEH inhibition” value is listed as 3 fold. Also, the inhibition at 100 µM in data set [6] was 12.1%.
